Laboratory results taken from patent publication US9737517B2, “Pharmaceutical use of hexahydro-dibenzo[a,g]quinolizine compounds” (SHANGHAI INSTITUTE OF MATERIA MEDICA, CHINESE ACADEMY OF …, priority 2013, dated 2017).

Assays:
α1A-AR = target: T1, α1A-AR (Homo sapiens, UniProt P35348); assay: Calcium mobilization (Fluo-4) antagonism of phenylephrine in HEK293 cells expressing α1A-AR/Gα16; format: cell-based; conditions: for IC50: HEK293 α1A-AR/Gα16, calcium mobilization, phenylephrine 30 nM; for α1B/α1A: ratio of cell IC50 values, calcium mobilization
T1 construct: expressed in transfected cells; host or cells: HEK293
T1 sequence (P35348 1-466): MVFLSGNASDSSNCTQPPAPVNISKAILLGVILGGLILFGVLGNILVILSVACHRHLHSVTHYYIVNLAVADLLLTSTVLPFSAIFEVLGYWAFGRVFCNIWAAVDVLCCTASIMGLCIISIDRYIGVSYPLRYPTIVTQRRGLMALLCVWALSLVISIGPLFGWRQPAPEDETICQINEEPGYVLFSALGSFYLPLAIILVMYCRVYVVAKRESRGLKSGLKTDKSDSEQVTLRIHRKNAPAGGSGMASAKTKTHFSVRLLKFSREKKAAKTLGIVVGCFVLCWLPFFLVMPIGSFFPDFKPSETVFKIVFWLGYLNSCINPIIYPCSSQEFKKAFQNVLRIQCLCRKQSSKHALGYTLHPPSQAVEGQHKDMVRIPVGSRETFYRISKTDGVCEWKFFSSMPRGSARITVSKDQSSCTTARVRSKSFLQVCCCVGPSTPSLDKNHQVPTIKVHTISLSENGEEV
Protocol: (§1) HEK293 cells stably expressing α1A-AR/Gα16, α1B-AR/Gα16, α1D-AR/Gα16 were seeded in a 96-well plate, and cultured for 24 hours. Then the medium was removed and 40 μL Hank's balanced salt solution (HBSS: containing 5.4 mM KCl, 0.3 mM Na2HPO4, 0.4 mM KH2PO4, 4.2 mM NaHCO3, 1.3 mM CaCl2, 0.5 mM MgCl2, 0.6 mM MgSO4, 137 mM NaCl, 5.6 mM D-glucose, and 250 μM sulfinpyrazone, pH 7.4) containing 2 μM Fluo-4 AM was added into each well, and incubated at 37° C. for 45 min. Dye was removed and 50 μL of HBSS containing either test compound or 1% DMSO (negative control) was added. After incubation at room temperature for 10 min, Flex Station 3 microplate reader was used to read the value. At specified time points, 25 μL of agonist (phenylephrine, final concentration 30 nM) was dispensed into the well automatically using the reader and fluorescence intensity change of dye caused by intracellular calcium concentration change was detected at an excitation wavelength of 485 nm and an emission wavelength of 525 nm.
(§2) After incubation with different drugs, the reaction rate of cells to 1-AR agonist phenylephrine was calculated as follows: Reaction rate %=(D−B)/(S−B)*100%;
(§3) The reaction rate of the same drug at different doses was tested using GraphPad Prism software by non-linear regression analysis, and the dose-response curve was obtained and IC50 values was measured. Data were obtained from three separate experiments, and each experiment included three duplicate wells.

BPH Rat model = assay: Pharmacodynamic experiment in BPH rat model (testosterone propionate), urination after water load; format: in vivo, SD rats; conditions: BPH model rats; for frequency of urination, single urine output: relation to dose: 3 doses, water load 30 mL/kg
Protocol: Establishing of BPH Rat model: 6-week-old male SD rats (n=49) (body weight about 200 g), in which 37 rats were BPH model group and daily injected testosterone propionate subcutaneously, and the other 12 rats were Sham group and injected olive oil, for 4 weeks. After 4 weeks, 49 rats received gavage in a dosage of 30 mL/kg of water, and urination for each rat was observed and recorded (recording each urine output and frequency of urination within two hours).
According to the above verification results, rats having abnormal urination were firstly excluded. Then, the normal BPH model rats were divided into 2 groups, 12 rats every group, and 12 rats of Sham group were singled out as control group. Grouping principles were as follows: there were significant differences of body weight, frequency of urination within two hours, single urine output and the total amount of urination between the two groups of BPH model and Sham group, and there were no significant differences between the two groups of BPH model.
Efficacy verification experiment. The experiment had seven groups: Sham group, silodosin group (BPH-1,3-group dose) and DC037009 group (BPH-2,3-group dose). Rats received gavage in a dosage of 5 mL/kg and each dose of the compound dissolved with CMCNa. After 20 min, the rats received gavage in a dosage of 30 mL/kg water. The study time interval of different doses of the same compound was over 24 hours.

SD rats = assay: Phenylephrine-induced intraurethral pressure (IUP) and arterial blood pressure (MBP) elevation in anesthetized rats; format: in vivo; conditions: anesthetized male SD rats; for inhibition of phenylephrine-induced intraurethral pressure (IUP) elevation / inhibition of phenylephrine-induced peripheral arterial blood pressure (MBP) elevation: intraduodenal administration
Text: Male SD rats (200-450 g) were anesthetized with an i.p. administration of urethane (1.25 g/kg). The urinary bladder, prostate, and urethra were exposed through an abdominal midline and symphysis pubica incision. A catheter was placed into the prostatic urethra through the bladder dome and secured at bladder neck (vesico-urethral junction) with a silk suture. The distal urethra under pubica was closed. The other side of the catheter was connected to a pressure transducer to measure the intraurethral pressure (IUP). After separating the duodenum and cutting open at about 2 cm from the stomach pylorus, intubating and performing purse-string suture, the test sample was supplied. Then, the median carotid incision was performed, carotid artery was separated, and the arterial blood pressure was measured by pressure transducer connected to artery cannula. Be careful not to hurt the nerves and blood vessels throughout the procedure. After surgery, a small amount (0.1˜0.2 mL) of saline was injected to balance the intraurethral pressure at around 10 cm of water. Then an intravenous injection at a concentration of 30 μg/mL of […] 1 mL/kg was performed before administration and 5 min, 30 min, 1 h, 1.5 h, 2 h, 3 h after administration to induce intraurethral pressure elevation. (If the effect was stable or weakened, then the experiment was ended.) The changes of intraurethral pressure and blood pressure induced by phenylephrine in rats were observed and recorded at different time points before and after administration.

α1D-AR = target: T2, α1D-AR (Homo sapiens, UniProt P25100); assay: Calcium mobilization (Fluo-4) antagonism of phenylephrine in HEK293 cells expressing α1D-AR/Gα16; format: cell-based; conditions: phenylephrine 30 nM
T2 construct: expressed in transfected cells; host or cells: HEK293
T2 sequence (P25100 1-572): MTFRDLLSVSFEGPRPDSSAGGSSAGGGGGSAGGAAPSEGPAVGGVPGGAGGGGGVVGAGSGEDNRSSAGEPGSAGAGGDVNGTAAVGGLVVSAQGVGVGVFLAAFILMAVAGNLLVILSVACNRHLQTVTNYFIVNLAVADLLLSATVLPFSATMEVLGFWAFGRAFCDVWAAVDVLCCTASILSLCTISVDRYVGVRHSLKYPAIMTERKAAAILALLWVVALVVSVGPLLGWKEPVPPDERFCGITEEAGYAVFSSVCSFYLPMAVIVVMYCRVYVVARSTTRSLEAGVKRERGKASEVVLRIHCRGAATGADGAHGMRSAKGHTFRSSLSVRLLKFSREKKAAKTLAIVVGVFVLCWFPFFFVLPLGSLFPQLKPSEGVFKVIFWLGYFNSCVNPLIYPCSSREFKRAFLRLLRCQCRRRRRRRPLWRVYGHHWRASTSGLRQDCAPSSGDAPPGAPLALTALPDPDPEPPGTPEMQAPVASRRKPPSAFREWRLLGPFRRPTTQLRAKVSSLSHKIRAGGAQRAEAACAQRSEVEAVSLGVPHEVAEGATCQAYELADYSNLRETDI
Protocol: as §1, §2, §3

[1] = under certain total urine output

## COc1cc2c(cc1OC)CN1CCc3cc4c(cc3[C@@H]1C2)OCO4 [DC037009, S-(−)-2,3-methylenedioxy-10,11-dimethoxy-5,8,13,13a-tetrahydro-6H-dibenzo[a,g]quinolizine]
α1A-AR
  IC50: 29.8 nM
  α1B/α1A: 175
BPH Rat model; gavage
  efficacy compared with positive drug: comparable to the positive drug
  onset dose: 1 mg/kg
  frequency of urination, single urine output: relation to dose: dose-dependent relationship
BPH Rat model; [1]
  frequency of urination: reduce frequency of urination
  single urine output: significantly increase
SD rats; IUP versus MBP
  selectivity to urethra (rank order): DC037009>Silodosin
SD rats
  onset dose compared with silodosin: significantly lower than that of positive drug silodosin
  rank order of inhibition of phenylephrine-induced blood pressure elevation: Silodosin>DC037009
  rank order of inhibition of phenylephrine-induced intraurethral pressure elevation: DC037009>Silodosin
  inhibition of phenylephrine-induced intraurethral pressure (IUP) elevation: dose-dependently inhibit
  inhibition of phenylephrine-induced peripheral arterial blood pressure (MBP) elevation: dose-dependently inhibit
α1D-AR
  IC50: 260 nM

## C[C@H](Cc1cc2c(c(C(N)=O)c1)N(CCCO)CC2)NCCOc1ccccc1OCC(F)(F)F [Silodosin, reference compound]
BPH Rat model; gavage
  frequency of urination, single urine output: relation to dose: dose-dependent relationship
SD rats
  inhibition of phenylephrine-induced intraurethral pressure (IUP) elevation: dose-dependently inhibit
  inhibition of phenylephrine-induced peripheral arterial blood pressure (MBP) elevation: dose-dependently inhibit

## COc1cc2c(cc1OCc1ccccc1)C[C@H]1c3cc4c(cc3CCN1C2)OCO4 [DC037016]
α1A-AR
  IC50: 34.8 nM
  α1B/α1A: 122
α1D-AR
  IC50: 191 nM
